CC(=O)C1=C(O)C=C2Oc3c(C(C)=O)c(O)c(C)c(O)c3C2(C)C1=O (stereo in doubt)
solubility (mole fraction)
Details	in acetone	in ethanol	in ethyl acetate	in n-hexane	in water
278.15 K	0.000422	–	–	–	–
283.15 K	0.000454	–	–	–	–
288.15 K	0.000541	3.09e-05	0.00109	5.97e-05	2.81e-07
293.15 K	0.00061	4.23e-05	0.00125	6.97e-05	2.99e-07
298.15 K	0.000747	5.3e-05	0.00158	8.06e-05	3.31e-07
303.15 K	0.000879	6.8e-05	0.00189	9.43e-05	3.52e-07
308.15 K	0.000978	9.3e-05	0.00216	0.000106	3.75e-07
313.15 K	0.00121	0.000114	0.00275	0.000128	4.06e-07
318.15 K	0.00165	0.000121	0.00314	0.000149	4.46e-07
323.15 K	0.00197	0.000148	0.0038	0.000176	4.77e-07
328.15 K	–	0.000203	0.00444	0.000224	5.3e-07
333.15 K	–	0.000234	0.00518	0.000256	5.94e-07
338.15 K	–	0.000274	0.00689	0.00029	6.61e-07

From BigSolDB 2.1
